Our source for the duration of analgesia and onset time values is US7928141B2 (priority 2005, dated 2011).

Common to all, as to assay type: in vivo, human
Holding throughout (details): using only lidocaine

Assay [1] can be described thus: Anesthetic trial in middle area operations: liposuction in the abdomen. On the procedure: The above components were dissolved in a small amount (<1 mL) of distilled water and mixed homogeneously, and the mixture was then diluted to 10 mL to yield the L.S.Z. solution.
10 bottles were filled each with 500 mL of normal saline solution. To each bottle was added 10 ml 2% lidocaine solution (as described in Example 1), and 1 mL of the L.S.Z. solution. The bottles were shaken respectively to mix well, yielding L.S.Z. anesthetic solution having a long duration of action.
[…] While injecting the anesthetic solution, liposuction was conducted using a liposuction tube, finally removing 3500 mL aspirated fat solution in total. The operation lasted 1 hour. When injecting, 3 injection points, the subcutaneous depth of 1-2 cm, and radiation injection around the injection point were chosen to form 3 anesthetic zones with a radius of 15 cm. After injection, the onset time shortened from the original about 1 min (using only lidocaine) down to about 5 sec, and the duration of analgesia prolonged from the original 4 hours (using only lidocaine) to about 9 days.

The nature of assay [2]: Anesthetic trial in large area operations: liposuction in the lower limb (buttock, thigh, calf). On the procedure: The above components were dissolved in a small amount (<1 mL) of distilled water and mixed homogeneously, and the mix was then diluted to 60 mL to yield the L.S.Z. solution.
20 bottles were filled each with 500 mL normal saline solution. To each bottle was added 15 mL of 2% lidocaine solution (as described in Example 1) and 3 mL of the L.S.Z. solution as prepared in this Example. The bottles were shaken respectively to mix well, yielding L.S.Z. anesthetic solution having a long duration of action.
[…] While injecting the anesthetic solution, liposuction was conducted using a liposuction tube, finally removing 6 L aspirated fat solution in total. The operation lasted for about 3 hours. When injecting, 8 injection points, the subcutaneous depth of 1-2 cm, and the radiation injection method around the injection point were chosen to form 8 anesthetic zones with a radius of 20 cm. After injection, the onset time shortened from the original about 1 min (using only lidocaine) down to around 5 sec, and the duration of analgesia prolonged from the original 4 hours (using only lidocaine) to about 9 days.

Assay [3] is described as follows: Anesthetic trial in general liposuction operations. On the procedure: The above components were dissolved in a small amount (<1 mL) of distilled water and mixed homogeneously, and the mix was then diluted to 150 mL to yield the L.S.Z. solution.
50 bottles were filled each with 500 mL normal saline solution. […] The bottles were shaken respectively to mix well, yielding L.S.Z. anesthetic solution having a long duration of action.
Then, a common syringe with a 25 cm long needle was used to inject subcutaneously the above anesthetic solution in 45 sites of a […], 1.70 m in height, and 90 kg in weight. While injecting the anesthetic solution, liposuction was conducted using a liposuction tube, finally removing 18 L aspirated fat solution in total. The operation lasted for about 9 hours and the weight of the subject was reduced by 15 kg in total.

For `CCN(CC)CC(=O)Nc1c(C)cccc1C` [lidocaine], the duration of analgesia in assay [1], in assay [2] and in assay [3] was 4 h throughout. Besides, the onset time entry in assay [1], in assay [2] and in assay [3] was “about 1 min” throughout.
